Legend:
IGF1R [1] = molecular target: T1, IGF1R (Homo sapiens, UniProt P08069); experiment: Cellular IGF-1R assay: inhibition of IGF1R phosphorylation in Hek293 cells, capture ELISA (MSD); format: cell-based; parameters: expressed in transfected cells; host or cells: Hek293 (Hek293-IGF1R); conditions: IGF-triggered receptor phosphorylation
Protocol: IVa. Cellular IGF-1R and InsR Assays
Compound-mediated inhibition of IGF1R and INSR phosphorylation in Hek293 cells transduced with the corresponding receptors is assessed in a capture ELISA format using the MSD (Meso Scale Discovery) platform. Briefly, 30′000 cells washed and diluted in starvation medium (DMEM high glucose supplemented with 0.1% BSA) are seeded in 90 μL per well into 96-well plates pre-coated with poly-D-lysine (0.1 mg/mL in PBS/O). After 24 h incubation at 37° C. and 5% CO2, dose-response effects are determined with 3-fold serial compound dilutions, starting at 10 μM. The final vehicle concentration is 0.1% DMSO in all wells. Following pre-incubation with compounds for 1 h, receptor phosphorylation is triggered by a 10 min exposure to 1.0 ng/μL IGF for Hek293-IGF1R cells, and 5.0 ng/μL insulin for Hek293-InsR cells. Cell lysis is achieved by addition of 80 μL MSD lysis buffer per aspirated well, incubation on ice for 20 min, and a freeze-thaw cycle. Target phosphorylation is then assessed by transferring volumes corresponding to approx. 6 μg Hek293-IGF1R or 0.6 μg Hek293-InsR lysates to MSD assay plates pre-coated with total-IGF1R or total-InsR Abs, respectively. […] Immune complexes are detected by a SULFO-Tag™-coupled anti-rabbit IgG antibody in the presence of 150 μL MSD read-buffer. Light emission at 620 nm triggered by application of electric current is recorded on a MSD Sectorlmager 6000. Acquired raw data (mean Ru-ECL units) are processed in an Excel analysis template. The plate blank (MSD lysis buffer) is subtracted from all data points. The effect of a particular test compound concentration on receptor phosphorylation is expressed relative to the window defined by ligand-stimulated vs unstimulated control cells (set as 100%). IC50 values [nM] are determined using 4-parametric curve-fitting (XLfit software, V4.3.2).

IGF1R [2] = molecular target: T1, IGF1R; experiment: Enzymatic kinase assay (filter-binding/flashplate); format: biochemical
Protocol: (§1) Two methods were used to analyze phosphorylated peptides and proteins produced by the listed tyrosine and serine/threonine-specific protein kinases: either using a filter-binding assay (FB), or using a flashplate assay (FP). The activities of protein kinases were assayed in the presence or absence of inhibitors, by measuring the incorporation of ^33P from [γ^33P]ATP into appropriate substrates.
(§2) 96-well polypropylene microplates were used to assay the activity in the FB mode. To determine the inhibitory activity of compounds 10 μL of compound dilutions were pipetted into 96-well plates followed by the addition of 10 μL of assay mix and 10 μL of individual enzymes. With the addition of the enzymes the reactions were initiated and continued at RT. […] The final concentration of DMSO in the enzyme assays was 1%.
(§3) Flashplates are available as 96-well standard (STFPs) or as streptavidin-(SAFPs) or nickel coated FPs (NiFPs) from Perkin Elmer. STFPs are 96-well polystyrene microplates in which the interior of each well is permanently coated with a thin layer of polystyrene-based scintillant. Streptavidin flashplates (SAFP) are 96 or 384-well STFPs coated with streptavidin. SAFPs are suitable for a wide variety of assay applications which utilize biotinylated capture molecules. NiFP or nickel chelate flashplates are 96- or 384-well STFPs coated with nickel chelate. NiFPs are designed for in-plate, radiometric assays which utilize 4- or 6-histidine tagged proteins and peptides.
(§4) All kinase assays were performed in STFPs for 60 mins at RT and stopped with 50 μL of 0.5% H3PO4 except PKA which were carried out in polypropylene 96- and 384-well plates, respectively. […] All wells were then washed three times with 200 μL of 0.5% H3PO4 and the plates were dried at room temperature. The plates were sealed and counted in a microplate scintillation counter (TopCount NXT, TopCount NXT HTS). The final concentration of DMSO in the enzyme assays was 1%.

InsR = InsR (Homo sapiens, UniProt P06213); experiment: Enzymatic kinase assay (filter-binding/flashplate); format: biochemical; conditions: enzymatic; read-out: InsR IC50 values
Chain of InsR (P06213 28-1382, species assumed): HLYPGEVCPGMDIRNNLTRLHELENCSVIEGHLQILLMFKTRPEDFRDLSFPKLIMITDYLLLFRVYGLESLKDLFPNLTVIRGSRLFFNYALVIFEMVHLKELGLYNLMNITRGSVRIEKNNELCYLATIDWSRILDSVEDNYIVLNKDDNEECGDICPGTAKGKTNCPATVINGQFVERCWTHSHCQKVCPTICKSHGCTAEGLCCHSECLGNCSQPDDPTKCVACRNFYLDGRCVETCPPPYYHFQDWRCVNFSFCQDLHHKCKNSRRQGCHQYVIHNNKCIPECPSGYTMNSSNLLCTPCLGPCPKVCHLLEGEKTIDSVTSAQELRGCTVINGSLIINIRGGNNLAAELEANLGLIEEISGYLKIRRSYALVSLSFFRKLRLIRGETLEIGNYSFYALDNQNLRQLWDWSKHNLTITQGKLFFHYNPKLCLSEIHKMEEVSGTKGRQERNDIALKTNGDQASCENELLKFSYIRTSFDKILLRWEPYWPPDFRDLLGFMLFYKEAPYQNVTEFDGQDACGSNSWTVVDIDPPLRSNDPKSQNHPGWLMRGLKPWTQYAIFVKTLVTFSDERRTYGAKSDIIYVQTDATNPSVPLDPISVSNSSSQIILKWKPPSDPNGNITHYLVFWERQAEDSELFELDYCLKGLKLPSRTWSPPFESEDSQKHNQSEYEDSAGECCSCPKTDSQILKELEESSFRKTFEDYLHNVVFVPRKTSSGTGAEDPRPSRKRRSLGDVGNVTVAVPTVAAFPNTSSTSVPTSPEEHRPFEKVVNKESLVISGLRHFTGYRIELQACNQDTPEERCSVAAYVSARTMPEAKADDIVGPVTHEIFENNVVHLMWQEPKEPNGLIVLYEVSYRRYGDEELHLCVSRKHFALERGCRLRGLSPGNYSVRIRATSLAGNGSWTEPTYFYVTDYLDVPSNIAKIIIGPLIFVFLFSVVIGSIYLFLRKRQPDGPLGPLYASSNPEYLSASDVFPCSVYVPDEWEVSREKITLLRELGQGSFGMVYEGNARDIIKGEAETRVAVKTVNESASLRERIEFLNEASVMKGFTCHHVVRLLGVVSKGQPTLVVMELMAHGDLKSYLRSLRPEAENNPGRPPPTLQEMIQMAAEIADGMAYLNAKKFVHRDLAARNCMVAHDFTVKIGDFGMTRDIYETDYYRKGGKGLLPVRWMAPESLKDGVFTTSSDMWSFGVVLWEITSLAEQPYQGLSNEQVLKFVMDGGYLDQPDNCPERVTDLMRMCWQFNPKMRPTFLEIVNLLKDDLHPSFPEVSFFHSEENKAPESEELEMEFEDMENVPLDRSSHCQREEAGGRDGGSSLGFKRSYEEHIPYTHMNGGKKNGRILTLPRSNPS
Protocol: as §1, §2, §3, §4

GSK3beta = GSK3beta (Homo sapiens, UniProt P49841); experiment: Enzymatic kinase assay; format: biochemical
Protocol: as §1, §2, §3, §4

FGFR-4 = FGFR-4 (Homo sapiens, UniProt P22455); experiment: Enzymatic kinase assay; format: biochemical
Chain of FGFR-4 (P22455 22-802, species assumed): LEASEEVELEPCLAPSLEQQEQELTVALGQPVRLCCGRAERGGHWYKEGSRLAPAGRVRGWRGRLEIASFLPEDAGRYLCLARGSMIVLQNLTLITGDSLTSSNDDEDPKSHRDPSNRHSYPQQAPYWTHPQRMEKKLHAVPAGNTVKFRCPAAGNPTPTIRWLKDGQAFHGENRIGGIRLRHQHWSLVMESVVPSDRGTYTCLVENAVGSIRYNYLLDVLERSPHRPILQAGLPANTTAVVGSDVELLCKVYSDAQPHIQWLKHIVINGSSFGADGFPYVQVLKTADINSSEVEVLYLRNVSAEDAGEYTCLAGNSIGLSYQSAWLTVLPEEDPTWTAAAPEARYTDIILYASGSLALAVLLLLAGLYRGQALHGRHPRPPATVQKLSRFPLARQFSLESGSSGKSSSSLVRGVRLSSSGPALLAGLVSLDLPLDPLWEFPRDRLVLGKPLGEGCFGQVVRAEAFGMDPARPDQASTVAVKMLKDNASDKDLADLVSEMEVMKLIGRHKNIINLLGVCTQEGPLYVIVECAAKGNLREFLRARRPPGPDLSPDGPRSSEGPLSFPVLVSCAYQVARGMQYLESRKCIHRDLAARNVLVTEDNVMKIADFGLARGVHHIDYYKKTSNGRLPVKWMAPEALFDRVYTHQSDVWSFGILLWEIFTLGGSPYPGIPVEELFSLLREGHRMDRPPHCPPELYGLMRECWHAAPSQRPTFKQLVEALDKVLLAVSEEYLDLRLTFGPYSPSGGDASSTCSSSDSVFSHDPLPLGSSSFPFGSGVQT
Protocol: as §1, §2, §3, §4

JAK2 = JAK2 (Homo sapiens, UniProt O60674); experiment: Enzymatic kinase assay; format: biochemical
Protocol: as §1, §2, §3, §4

TYK2 = TYK2 (Homo sapiens, UniProt P29597); experiment: Enzymatic kinase assay; format: biochemical
Protocol: as §1, §2, §3, §4

HER2 = HER2 (Homo sapiens, UniProt P04626); experiment: Enzymatic kinase assay; format: biochemical
Protocol: as §1, §2, §3, §4

cKIT = cKIT (Homo sapiens, UniProt P10721); experiment: Enzymatic kinase assay; format: biochemical
Protocol: as §1, §2, §3, §4

cMET = cMET (Homo sapiens, UniProt P08581); experiment: Enzymatic kinase assay; format: biochemical
Protocol: as §1, §2, §3, §4

PDGFRa = PDGFRa (Homo sapiens, UniProt P16234); experiment: Enzymatic kinase assay; format: biochemical
Protocol: as §1, §2, §3, §4

CDK2A = CDK2A (Homo sapiens, UniProt P24941); experiment: Enzymatic kinase assay; format: biochemical
Protocol: as §1, §2, §3, §4

MK2 = MK2 (Homo sapiens, UniProt P49137); experiment: Enzymatic kinase assay; format: biochemical
Chain of MK2 (P49137 whole entry, species assumed): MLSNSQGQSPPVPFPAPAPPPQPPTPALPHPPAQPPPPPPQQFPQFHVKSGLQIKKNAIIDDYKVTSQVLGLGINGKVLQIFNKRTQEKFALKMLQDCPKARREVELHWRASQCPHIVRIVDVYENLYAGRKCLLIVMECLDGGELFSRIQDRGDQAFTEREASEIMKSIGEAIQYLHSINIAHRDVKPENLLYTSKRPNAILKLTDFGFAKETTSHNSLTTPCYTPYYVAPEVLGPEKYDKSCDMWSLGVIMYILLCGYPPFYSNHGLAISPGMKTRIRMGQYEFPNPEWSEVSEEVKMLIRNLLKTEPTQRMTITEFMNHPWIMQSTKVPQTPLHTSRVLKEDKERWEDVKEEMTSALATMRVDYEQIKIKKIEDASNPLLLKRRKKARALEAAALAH
Protocol: as §1, §2, §3, §4

P38a = P38a (Homo sapiens, UniProt Q16539); experiment: Enzymatic kinase assay; format: biochemical
Chain of P38a (Q16539 whole entry): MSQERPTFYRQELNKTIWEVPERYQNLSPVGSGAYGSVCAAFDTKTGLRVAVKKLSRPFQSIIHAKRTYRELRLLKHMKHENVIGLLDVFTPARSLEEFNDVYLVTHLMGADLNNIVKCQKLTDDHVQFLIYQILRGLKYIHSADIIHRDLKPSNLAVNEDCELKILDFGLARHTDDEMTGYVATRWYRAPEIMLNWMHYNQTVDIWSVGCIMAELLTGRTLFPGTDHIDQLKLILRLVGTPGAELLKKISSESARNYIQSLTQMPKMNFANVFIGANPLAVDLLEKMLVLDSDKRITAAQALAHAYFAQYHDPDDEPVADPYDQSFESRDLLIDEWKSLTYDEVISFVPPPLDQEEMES
Protocol: as §1, §2, §3, §4

COT1 = COT1 (Homo sapiens, UniProt P41279); experiment: Enzymatic kinase assay; format: biochemical
Protocol: as §1, §2, §3, §4

KDR = KDR (Homo sapiens, UniProt P35968); experiment: Enzymatic kinase assay; format: biochemical
Protocol: as §1, §2, §3, §4

Aurora A = molecular target: T2, Aurora A (Homo sapiens, UniProt O14965); experiment: Enzymatic kinase assay; format: biochemical
T2 sequence (O14965 1-403): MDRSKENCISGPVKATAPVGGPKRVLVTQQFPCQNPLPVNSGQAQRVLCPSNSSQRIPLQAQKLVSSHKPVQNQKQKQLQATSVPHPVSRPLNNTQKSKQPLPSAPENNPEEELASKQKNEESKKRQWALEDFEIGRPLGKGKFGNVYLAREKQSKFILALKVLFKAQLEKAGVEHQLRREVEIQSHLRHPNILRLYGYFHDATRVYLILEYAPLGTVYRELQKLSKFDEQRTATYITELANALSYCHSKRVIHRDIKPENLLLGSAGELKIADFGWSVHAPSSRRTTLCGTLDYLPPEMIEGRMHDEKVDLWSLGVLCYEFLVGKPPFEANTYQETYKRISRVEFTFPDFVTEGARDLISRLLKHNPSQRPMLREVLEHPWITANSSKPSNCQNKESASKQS
Protocol: as §1, §2, §3, §4

EphA4 = EphA4 (Homo sapiens, UniProt P54764); experiment: Enzymatic kinase assay; format: biochemical
Chain of EphA4 (P54764 20-986, species assumed): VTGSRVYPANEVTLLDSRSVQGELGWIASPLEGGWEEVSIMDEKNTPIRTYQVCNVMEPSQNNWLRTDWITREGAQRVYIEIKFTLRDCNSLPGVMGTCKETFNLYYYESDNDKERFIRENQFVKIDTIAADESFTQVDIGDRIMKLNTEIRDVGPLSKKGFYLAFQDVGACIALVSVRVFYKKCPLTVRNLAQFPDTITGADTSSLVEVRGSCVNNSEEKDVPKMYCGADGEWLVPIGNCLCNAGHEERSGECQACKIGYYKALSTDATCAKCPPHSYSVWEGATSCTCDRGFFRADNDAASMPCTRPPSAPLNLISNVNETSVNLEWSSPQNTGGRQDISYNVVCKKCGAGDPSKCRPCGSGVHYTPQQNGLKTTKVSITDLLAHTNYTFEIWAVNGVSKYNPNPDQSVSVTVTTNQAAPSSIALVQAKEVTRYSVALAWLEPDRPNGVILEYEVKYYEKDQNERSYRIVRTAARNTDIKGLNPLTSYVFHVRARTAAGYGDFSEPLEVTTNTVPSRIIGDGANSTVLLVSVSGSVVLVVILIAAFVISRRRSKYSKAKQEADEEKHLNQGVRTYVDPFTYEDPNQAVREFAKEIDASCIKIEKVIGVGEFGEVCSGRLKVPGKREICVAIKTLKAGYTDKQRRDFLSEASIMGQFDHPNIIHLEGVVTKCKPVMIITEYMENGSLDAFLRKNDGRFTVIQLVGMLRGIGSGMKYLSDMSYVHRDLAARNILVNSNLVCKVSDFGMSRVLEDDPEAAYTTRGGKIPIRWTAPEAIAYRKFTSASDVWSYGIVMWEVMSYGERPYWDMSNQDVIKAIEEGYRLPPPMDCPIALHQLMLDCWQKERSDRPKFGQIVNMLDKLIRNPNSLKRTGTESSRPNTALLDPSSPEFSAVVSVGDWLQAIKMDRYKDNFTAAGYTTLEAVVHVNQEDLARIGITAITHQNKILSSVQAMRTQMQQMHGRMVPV
Protocol: as §1, §2, §3, §4

ERK2 = ERK2 (Homo sapiens, UniProt P28482); experiment: Enzymatic kinase assay; format: biochemical
Chain of ERK2 (P28482 whole entry, species assumed): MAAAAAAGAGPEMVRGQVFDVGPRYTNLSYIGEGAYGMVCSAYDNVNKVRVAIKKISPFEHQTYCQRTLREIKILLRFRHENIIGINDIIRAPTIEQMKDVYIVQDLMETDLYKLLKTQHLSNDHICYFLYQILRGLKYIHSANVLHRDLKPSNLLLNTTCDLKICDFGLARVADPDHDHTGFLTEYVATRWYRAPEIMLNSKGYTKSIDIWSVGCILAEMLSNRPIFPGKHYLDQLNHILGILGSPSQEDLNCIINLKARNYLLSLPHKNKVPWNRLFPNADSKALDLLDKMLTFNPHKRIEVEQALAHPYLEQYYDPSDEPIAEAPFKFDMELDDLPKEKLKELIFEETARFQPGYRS
Protocol: as §1, §2, §3, §4

cABLT315 = cABLT315 (Homo sapiens, UniProt P00519, T315I); experiment: Enzymatic kinase assay; format: biochemical
Protocol: as §1, §2, §3, §4

LCK = LCK (Homo sapiens, UniProt P06239); experiment: Enzymatic kinase assay; format: biochemical
Chain of LCK (P06239 whole entry, species assumed): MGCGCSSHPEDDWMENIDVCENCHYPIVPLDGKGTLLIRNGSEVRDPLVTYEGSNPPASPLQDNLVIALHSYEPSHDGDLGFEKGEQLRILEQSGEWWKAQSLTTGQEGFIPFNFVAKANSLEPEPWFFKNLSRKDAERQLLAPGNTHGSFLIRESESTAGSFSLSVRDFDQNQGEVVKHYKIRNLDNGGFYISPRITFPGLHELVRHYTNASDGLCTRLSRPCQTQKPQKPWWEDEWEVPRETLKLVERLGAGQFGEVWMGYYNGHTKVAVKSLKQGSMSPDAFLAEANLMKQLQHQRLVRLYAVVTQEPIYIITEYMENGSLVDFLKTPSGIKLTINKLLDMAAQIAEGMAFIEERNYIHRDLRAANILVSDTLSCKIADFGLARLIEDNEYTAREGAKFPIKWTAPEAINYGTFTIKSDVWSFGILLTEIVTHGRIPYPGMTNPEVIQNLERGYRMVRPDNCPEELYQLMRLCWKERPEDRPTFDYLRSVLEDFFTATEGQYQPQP
Protocol: as §1, §2, §3, §4

RET = RET (Homo sapiens, UniProt P07949); experiment: Enzymatic kinase assay; format: biochemical; conditions: enzymatic; read-out: RET IC50 values (converted)
Protocol: as §1, §2, §3, §4

hERG channels = hERG channels (Homo sapiens, UniProt Q12809); experiment: biochemical

| SMILES | IC50 (IGF1R [2]) [µM] | IC50 (InsR) [µM] | IC50 (GSK3beta) [µM] | IC50 (FGFR-4) [µM] | IC50 (JAK2) [µM] | IC50 (TYK2) [µM] | IC50 (HER2) [µM] | IC50 (cKIT) [µM] | IC50 (cMET) [µM] | IC50 (PDGFRa) [µM] | IC50 (CDK2A) [µM] | IC50 (MK2) [µM] | IC50 (P38a) [µM] | IC50 (COT1) [µM] | IC50 (KDR) [µM] | IC50 (Aurora A) [µM] | IC50 (EphA4) [µM] | IC50 (ERK2) [µM] | IC50 (cABLT315) [µM] | IC50 (LCK) [µM] | other results |
| --- | --- | --- | --- | --- | --- | --- | --- | --- | --- | --- | --- | --- | --- | --- | --- | --- | --- | --- | --- | --- | --- |
| Nc1ncnc2c1c(-c1cccc(OCC3CCCO3)c1F)cn2[C@H]1C[C@@H](CN2CCS(=O)(=O)CC2)C1 (mixture of isomers) [Example 1, 7-[3-(1,1-Dioxo-1-thiomorpholin-4-ylmethyl)-cyclobutyl]-5-[2-fluoro-3-(tetrahydro-furan-2-ylmethoxy)-phenyl]-7H-pyrrolo[2,3-d]pyrimidin-4-ylamine] | 0.0042 | 0.038 | > 10 | > 10 | > 10 | > 10 | > 10 | > 10 | > 10 | 6.3 | > 10 | > 10 | > 10 | > 10 | 2.4 | 7 | > 10 | > 10 | > 10 | > 10 | IC50 (IGF1R [1]): 0.005 µM; IC50 (RET): 2 µM |
| Nc1ncnc2c1c(-c1cccc(OC[C@@H]3CCCO3)c1F)cn2C1CC2(CNC(=O)O2)C1 (stereo partly drawn) [Example 4, 2-(4-Amino-5-{2-fluoro-3-[(S)-1-(tetrahydro-furan-2-yl)methoxy]-phenyl}-pyrrolo[2,3-d]pyrimidin-7-yl)-5-oxa-7-aza-spiro[3.4]octan-6-one] | 0.013 | 0.25 | > 10 | > 10 | > 10 | > 10 | > 10 | > 10 | > 10 | > 10 | > 10 | > 10 | > 10 | > 10 | 4.5 | > 10 | > 10 | > 10 | > 10 | > 10 | IC50 (hERG channels): 8.7 µM; IC50 (IGF1R [1]): 0.017 µM; IC50 (RET): > 10 µM |
| [2H]C1([2H])C([2H])([2H])C2(COc3cccc(-c4cn([C@H]5C[C@](O)(CO)C5)c5ncnc(N)c45)c3F)OC1([2H])C([2H])([2H])C2([2H])[2H] [Example 27, d9-(Z)-3-{4-Amino-5-[2-fluoro-3-(7-oxa-bicyclo[2.2.1]hept-1-ylmethoxy)-phenyl]-pyrrolo[2,3-d]pyrimidin-7-yl}-1-hydroxymethyl-cyclobutanol] | 0.022 | 0.13 | > 10 | > 10 | > 10 | > 10 | > 10 | > 10 | > 10 | > 10 | > 10 | > 10 | > 10 | > 10 | > 10 | > 10 | > 10 | > 10 | > 10 | 6.6 | IC50 (hERG channels): > 30 µM; IC50 (RET): > 10 µM |
| CC(=O)N1CCN([C@H]2C[C@H](n3cc(-c4cc(OC[C@@H]5CCCO5)ccc4F)c4c(N)ncnc43)C2)CC1 [Example 36, 1-{4-[trans-3-(4-Amino-5-{2-fluoro-5-[(S)-1-(tetrahydro-furan-2-yl)methoxy]-phenyl}-pyrrolo[2,3-d]pyrimidin-7-yl)-cyclobutyl]-piperazin-1-yl}-ethanone] | 0.03 | 1.3 | > 10 | > 10 | > 10 | > 10 | > 10 | > 10 | > 10 | > 10 | > 10 | > 10 | > 10 | > 10 | > 10 | > 10 | > 10 | > 10 | > 10 | 9.7 | IC50 (hERG channels): > 30 µM; IC50 (RET): 3.1 µM |
| Nc1ncnc2c1c(-c1cc(OC[C@@H]3CCCO3)ccc1F)cn2[C@H]1C[C@@H](N2CCN(C(=O)CO)CC2)C1 [Example 40, 1-{4-[cis-3-(4-Amino-5-{2-fluoro-5-[(S)-1-(tetrahydro-furan-2-yl)methoxy]-phenyl}-pyrrolo[2,3-d]pyrimidin-7-yl)-cyclobutyl]-piperazin-1-yl}-2-hydroxy-ethanone] | 0.0087 | 0.27 | > 10 | > 10 | > 10 | > 10 | > 10 | > 10 | > 10 | > 10 | > 10 | > 10 | > 10 | > 10 | 9.2 | > 10 | > 10 | > 10 | > 10 | > 10 | IC50 (hERG channels): > 30 µM; IC50 (RET): > 10 µM |
